Like-named read-outs stand apart in the source and are kept apart here.
Assays:
[1] = biological target: human BChE (Homo sapiens, UniProt P06276); test: UV-based BChE inhibition (IC50) assay; type: biochemical; settings: non-radioactive compounds, 30 min preincubation, room temperature, pH 7.0
Description: Assays employed to determine IC50 were developed by the present inventors and utilized UV based detection. For UV-based assays, a BChE solution in 0.1 M potassium phosphate, pH 7.0 was placed in the desired numbers of wells of a 96-well plate (0.05 mL/well). The investigated compound was diluted in DMSO to produce concentrations from 0 to 10 μM in DMSO and 0.002 mL/well of these dilutions was added to BChE-containing wells. Reaction mixtures were incubated at room temperature for 30 min. The reagent consisting of BChE substrate, 1 mM (2-mercaptoethyl)trimethylammonium iodide butyrate, and 0.5 mM 5,5′-dithio-bis(2-nitrobenzoic acid) in 0.1 M potassium phosphate, pH 7.0 (prepared fresh for each assay) was added, 0.25 mL per well. The mixture was incubated at room temperature and the OD at λ=405 nm was read at 1, 2, 3, 4, 5, 10, and 15 min after the addition of this reagent using the Opsys MR™plate reader (Dynex Technologies, Chantilly, Va.). Data were analyzed using the IC50 nonlinear regression function provided by GraphPad Prism (GraphPad Software, La Jolla, Calif.).
The compound binding of several non-radioactive compounds of the method of the invention were analyzed by the aforementioned human BChE compound binding study to determine their affinity for the therapeutic target (Table 1).

[2] = tested on: IP OVCAR-3 tumors; test: Pilot therapy of IP OVCAR-3 tumors in athymic mice; type: in vivo; settings: for whole body retention, median / whole body retention: after 14 days; for whole body retention: value with spread in brackets
From the text: In pilot therapy experiments, the effects of unmodified ^125IUdR on the growth of IP OVCAR-3 tumors were compared to the therapeutic effects of the 6b diastereomeric mixture and 7b diastereomeric mixture. The tumor model used in this study, OVCAR-3 cell line, was established from the malignant ascites of a patient with progressive adenocarcinoma of the ovary after many types of chemotherapy including cyclophosphamide, adriamycin, and cisplatin. OVCAR-3 is resistant in vitro to clinically relevant concentrations of adriamycin, melphalan, and cisplatin (Hamilton T C, Young R C, Louie K G, Behrens B C, McKoy W M, Grotzinger K R, Ozols R F. Characterization of a xenograft model of human ovarian carcinoma which produces ascites and intraabdominal carcinomatosis in mice. Cancer Res. 1984; 44:5286-90.). In immunodeficient mice, IP injected OVCAR-3 cells produce malignant ascites, peritoneal carcinomatosis, and serosal and visceral seeding that, if left untreated, leads to death from respiratory compromise, hemorrhage from invasion of intra-abdominal blood vessels, and bowel obstruction. Substantial literature data (nearly 100 publications) confirm that this tumor model has pathogenesis and metastatic properties similar to those of human ovarian cancer.
Mice received IP implants of approximately 2.4×10^8 OVCAR-3 cells/mouse isolated from fresh OVCAR-3 mouse ascites. Cell viability was measured before and after injection, and was ≧90%. Four days after tumor cells were implanted, the mice received SQ transponders and were randomized via a lottery into four groups: NT—untreated controls that received IP injection of PBS; 7b group—receiving IP doses of the 7b diastereomeric mixture in PBS (average 0.4 mCi/mouse (14.8 MBq)); 6b group—receiving IP doses of the 6b diastereomeric mixture in PBS (average dose 0.36 mCi/mouse (13.3 MBq)); and ^125IUdR group—receiving IP doses of ^125IUdR (average 0.43 mCi/mouse (15.9 MBq)) in PBS. Mice were monitored three times per week.
Mice in the 6b group received 0.22 mCi (8.1 MBq) 6b diastereomeric mixture on day 27; and on day 28 mice in ^125IUdR group were treated with additional 0.2 mCi (7.4 MBq) ^125IUdR. Slight differences in the dosing schedule and the administered doses are because of the required large quantities of the compounds. For these experiments, ˜20 mCi of no-carrier added and radiochemically pure compounds were required. Each agent was purified on the analytical reversed phase HPLC column. The use of preparative columns in this case is impractical because the products are recovered in large volumes of acetonitrile-containing solvent that must be evaporated to dryness before the use in mice.
Overall, mice in the 7b group were treated with an average of 0.58 mCi (21.5 MBq) 7b diastereomeric mixture; mice in the 6b group were treated with an average of 0.58 mCi (21.5 MBq) 6b diastereomeric mixture, and mice in the ^125IUdR group were treated with an average of 0.63 mCi (23.3 MBq) ^125IUdR.
The therapy was terminated 7 weeks after the first dosing. Mice were sacrificed for the biodistribution study. Blood and solid tumor were taken for the evaluation of their radioactive content. The peritoneal cavity was lavaged with 2-mL aliquots of PBS, and PBS wash and ascites were collected. One mL of the ascites suspension with cancer cells was taken for gamma counting. The rest of the abdominal fluid was centrifuged and 0.5 mL of the supernatant was reserved for gamma counting. The weight of the cell pellet and the supernatant were determined.
Two weeks after the first dose of radiolabeled compounds, the whole body radioactivity was measured to determine to what extent the additional doses of the compounds may increase the radiation burden and therefore may be detrimental to the animal health (FIG. 11B). The absolute amounts were low and ranged from […] for the 6b group to […] in the 7b group. […]

[3] = tested on: subcutaneous LS174T tumors (human colorectal adenocarcinoma); test: Biodistribution, clearance and planar imaging in athymic mice bearing subcutaneous LS174T xenografts; type: in vivo, athymic NCr-nu/nu mice
Description: The in vivo properties and pharmacology of several compounds of the present invention were initially tested in athymic mice bearing subcutaneous LS174T tumors (human colorectal adenocarcinoma), which have several desirable properties such as rapid growth when implanted subcutaneously (SQ), good vascularization and the availability of considerable historical data for the parent compound IUdR. The clearance rates from blood, tumor, and associated organs were analyzed to determine the structure-pharmacokinetics relationship. The first compounds studied were 6b-fast and 6b-slow. Four-to-six-weeks old female athymic NCr-nu/nu mice (NCI-Frederic, Md., USA) were allowed to acclimate in Applicants' facility after delivery for no less than 5 days. All protocols involving animals were approved by the University of Nebraska Institutional Animal Care and Use Committee. Mice were housed in microisolator cages with free access to sterilized standard rodent diet and water. LS174T cells in 0.1 mL of serum-free medium were implanted SQ at 5×10^6 cells/mouse. One week later identification transponders were implanted, also SQ. Body weights and tumor sizes were monitored twice weekly, and approximately 10 days after the cell implant, mice were randomized for biodistribution studies.
Each of the two isomers, 6b-fast and 6b-slow, was tested independently in separate groups of mice. The comparison to the parent compound, IUdR, was made by co-injecting ^131IUdR with a particular ^125I-labeled diastereomer. Compounds were administered intravenously (IV) via a tail vein.
Biodistribution was conducted at 1 h, 4 h, 24 and 48 h after the administration of radiolabeled compounds (n=6 per time point). The injection doses contained approximately 1 μCi (37 kBq) ^131IUdR and 5 μCi (185 kBq) ^125I-labeled 6b-fast or 6b-slow dissolved in 0.2 mL phosphate buffered saline containing 0.1% bovine serum albumin, pH 7.2 (PBS). All syringes were weighted after loading with the compound solution and immediately after the injection to determine the weight of the injected dose. Triplicate standards of the injected dose were prepared in PBS and counted in a gamma counter just before the beginning of the experiment. The radioactive content of these standards was also determined alongside all tissues after the necropsy to correct the tissue uptake for the decay of the radioisotope. Blood, liver, spleen, heart, lungs, kidneys, brain, tumor and tail were collected during necropsy. Tissues were rinsed in ice-cold saline, patted dry and weighed. The tail was collected to validate the quality of the IV injections.
FIG. 7 presents whole body images for a typical time course distribution (24 h, 48 h, and 72 h) of 6b administered as a diastereomeric mixture in LS174T-bearing athymic mice. The images were acquired 1, 2, and 3 days after the administration of the compound. […] It is also apparent that based on pharmacokinetics, the use of these compounds can be tailored to a specific malignancy and its anatomical location.

human BChE, sequence (P06276 29-602): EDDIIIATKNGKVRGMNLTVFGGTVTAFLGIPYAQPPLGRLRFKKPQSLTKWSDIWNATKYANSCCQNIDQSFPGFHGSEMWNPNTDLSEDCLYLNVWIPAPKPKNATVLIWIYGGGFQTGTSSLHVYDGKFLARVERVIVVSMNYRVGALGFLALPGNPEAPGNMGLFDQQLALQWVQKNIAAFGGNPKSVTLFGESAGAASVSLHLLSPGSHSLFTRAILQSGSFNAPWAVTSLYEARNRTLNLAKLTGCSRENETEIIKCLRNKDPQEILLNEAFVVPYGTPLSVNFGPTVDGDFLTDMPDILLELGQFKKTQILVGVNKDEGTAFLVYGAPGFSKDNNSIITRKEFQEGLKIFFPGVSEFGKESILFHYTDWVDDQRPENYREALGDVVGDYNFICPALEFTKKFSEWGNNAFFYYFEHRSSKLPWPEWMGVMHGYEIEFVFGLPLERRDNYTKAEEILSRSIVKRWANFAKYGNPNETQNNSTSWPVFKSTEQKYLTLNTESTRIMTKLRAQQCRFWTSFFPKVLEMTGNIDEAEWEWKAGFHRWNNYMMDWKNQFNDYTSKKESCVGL

Structure (SMILES)	IC50 ([1]; IC50 (nM))	also measured
O=c1[nH]c(=O)n(C2CC(O)C(COP3(=O)OCc4ccccc4O3)O2)cc1I (single isomer, unassigned) [6 - slow, 5-Iodo-5′-O-cycloSaligenyl-2′-deoxyuridine Monophosphate]	9.2 nM	–
Cc1cccc2c1OP(=O)(OCC1OC(n3cc(I)c(=O)[nH]c3=O)CC1O)OC2 (single isomer, unassigned) [7 - slow, 5-Iodo-5′-O-cyclo(3-methylSaligenyl)-2′-deoxyuridine Monophosphate]	61.2 nM	–
Cc1cccc2c1OP(=O)(OC[C@H]1O[C@@H](n3cc([125I])c(=O)[nH]c3=O)C[C@@H]1O)OC2 (stereo partly drawn) [Compound 7b, 5-[^125I]-Iodo-5′-O-cyclo(3-methylSaligenyl)-2′-deoxyuridine Monophosphate]	–	whole body retention, median [2]: 1.25 % ID; whole body retention [2]: 1.21 (0.12) % ID; reduction in solid tumor deposits as compared to ^125IUdR ([2]; diastereomeric mixtures IP, total average 0.58 mCi, 7 weeks after first dose): ~50%; tumor retention compared to ^125IUdR ([2]; necropsy 4 weeks after the boost dose): significantly higher compared to ^125IUdR
CC(C)(C)c1cc(C(C)(C)C)c2c(c1F)COP(=O)(OC[C@H]1O[C@@H](n3cc(I)c(=O)[nH]c3=O)C[C@@H]1O)O2 (single isomer, unassigned) [8 - fast, 5-Iodo-5′-O-[cyclo-3,5-di-(tert-butyl)-6-fluoroSaligenyl]-2′-deoxyuridine Monophosphate]	> 60000 nM	–
CC(C)(C)c1cc(C(C)(C)C)c2c(c1F)COP(=O)(OC[C@H]1O[C@@H](n3cc([125I])c(=O)[nH]c3=O)C[C@@H]1O)O2 (stereo partly drawn) [Compound 8b, 5-[^125I]-Iodo-5′-O-[cyclo-3,5-di-(tert-butyl)-6-fluoroSaligenyl]-2′-deoxyuridine Monophosphate]	–	clearance from blood and normal tissues ([3]; IV administration): very favorable blood clearance curve; major site of normal tissue uptake ([3]; biodistribution data): liver is the major site of the normal tissue uptake
O=c1[nH]c(=O)n(C2CC(O)C(COP3(=O)OCc4ccccc4O3)O2)cc1I (single isomer, unassigned) [6 - fast, 5-Iodo-5′-O-cycloSaligenyl-2′-deoxyuridine Monophosphate]	1280 nM	–
CC(C)(C)c1cc(C(C)(C)C)c2c(c1F)COP(=O)(OC[C@H]1O[C@@H](n3cc(I)c(=O)[nH]c3=O)C[C@@H]1O)O2 (stereo partly drawn) [8 - slow, 5-Iodo-5′-O-[cyclo-3,5-di-(tert-butyl)-6-fluoroSaligenyl]-2′-deoxyuridine Monophosphate]	–	IC50 ([1]; read-out: IC50): 50.1 nM
Cc1cn(C2CC(F)C(COP3(=O)OCc4c(F)c(C(C)(C)C)cc(C(C)(C)C)c4O3)O2)c(=O)[nH]c1=O (single isomer, unassigned) [23 - slow, 5′-O-[cyclo-3,5-Di-(tert-butyl)-6-fluoroSaligenyl]-3′-deoxy-3′-fluorothymidine Monophosphate]	42.6 nM	–
CC(C)(C)c1cc(C(C)(C)C)c2c(c1F)COP(=O)(OCC1OC(n3cc(I)c(=O)[nH]c3=O)CC1F)O2 (single isomer, unassigned) [24 - slow, 5-Iodo-5′-O-[cyclo-3,5-Di-(tert-butyl)-6-fluoroSaligenyl]-3′-fluoro-2′,3′-dideoxyuridine Monophosphate]	19.8 nM	–
O=c1[nH]c(=O)n([C@H]2C[C@H](O)[C@@H](CO)O2)cc1[125I] [^125IUdR, 5-[^125I]-iodo-2′-deoxyuridine, reference compound]	–	whole body retention, median [2]: 1.08 % ID; whole body retention [2]: 0.97 (0.11) % ID
CC(C)(C)c1cc(C(C)(C)C)c2c(c1F)COP(=O)(OCC1OC(n3cc(I)c(=O)[nH]c3=O)CC1F)O2 (single isomer, unassigned) [24 - fast, 5-Iodo-5′-O-[cyclo-3,5-Di-(tert-butyl)-6-fluoroSaligenyl]-3′-fluoro-2′,3′-dideoxyuridine Monophosphate]	549 nM	–
Cc1cccc2c1OP(=O)(OCC1OC(n3cc(I)c(=O)[nH]c3=O)CC1O)OC2 (single isomer, unassigned) [7 - fast, 5-Iodo-5′-O-cyclo(3-methylSaligenyl)-2′-deoxyuridine Monophosphate]	> 7000 nM	–
Cc1cn(C2CC(F)C(COP3(=O)OCc4c(F)c(C(C)(C)C)cc(C(C)(C)C)c4O3)O2)c(=O)[nH]c1=O (single isomer, unassigned) [23 - fast, 5′-O-[cyclo-3,5-Di-(tert-butyl)-6-fluoroSaligenyl]-3′-deoxy-3′-fluorothymidine Monophosphate]	203 nM	–
